The first series deals with T1, human Orexin 1 receptor (Homo sapiens, UniProt O43613).
T1 construct: stably expressing the full-length human Orexin 1 receptor; expressed in transfected cells; host or cells: CHO-K1 (CHO-K1/hOX1), co-expressing aequorin
T1 sequence (O43613 1-425): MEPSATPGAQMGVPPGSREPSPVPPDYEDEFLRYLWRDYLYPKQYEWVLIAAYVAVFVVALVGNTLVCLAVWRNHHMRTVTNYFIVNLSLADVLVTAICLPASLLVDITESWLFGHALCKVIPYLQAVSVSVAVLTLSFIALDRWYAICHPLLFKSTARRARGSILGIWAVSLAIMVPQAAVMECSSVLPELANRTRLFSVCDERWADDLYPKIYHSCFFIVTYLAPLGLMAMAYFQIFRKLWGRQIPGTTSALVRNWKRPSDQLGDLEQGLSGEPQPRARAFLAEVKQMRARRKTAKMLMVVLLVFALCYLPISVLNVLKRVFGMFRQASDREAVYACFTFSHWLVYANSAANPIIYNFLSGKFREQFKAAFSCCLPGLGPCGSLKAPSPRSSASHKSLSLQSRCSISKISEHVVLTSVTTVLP
In words: Assay A: In vitro testing of OX1R potency: OX1R IP1 (HTRF, CHO-K1/hOX1 cells, Orexin A as agonist). Type of series: cell-based. The following applies: OX1R Kb at 0.5 nM Orexin A. Background: Time-resolved FRET reads energy transfer from a long-lived donor to a nearby acceptor.
For `CCN(C(=O)c1ccc(F)cc1-n1nccn1)[C@@H](C)COc1ccc(C(F)(F)F)cn1` [Example 1], the “OX2R Kb/OX1R Kb” value is recorded as 171.

Turning to `CCN(C(=O)c1ccccc1-c1cncc(C#N)c1)[C@@H](C)COc1ccc(C(F)(F)F)cn1` [Example 76], the “OX2R Kb/OX1R Kb” value stood at 113.

Still in this series, the particulars now being: OX1R Kb at 50 nM Orexin A.
With `CCN(C(=O)c1cc(F)ccc1-c1ncccn1)[C@@H](C)COc1ccc(C(F)(F)F)cn1` [Example 107], the “OX2R Kb/OX1R Kb” value stood at 500.

Consider `CCN(C(=O)c1cc(C)ccc1-c1ncccn1)[C@@H](C)COc1ccc(C(F)(F)F)cn1` [Example 105], for which the “OX2R Kb/OX1R Kb” value was 524.

As to `CCN(C(=O)c1cc(F)cc(F)c1-n1nccn1)[C@@H](C)COc1ccc(C(F)(F)F)cn1` [Example 13], the “OX2R Kb/OX1R Kb” value was 511.

With `CCN(C(=O)c1ccccc1-n1nccn1)[C@@H](C)COc1ccc(C(F)(F)F)cn1` [Example 10], the “OX2R Kb/OX1R Kb” value is given as 117.

On to `CCN(C(=O)c1ccc(F)cc1-c1ncccn1)[C@@H](C)COc1ccc(C(F)(F)F)cn1` [Example 108], for which the “OX2R Kb/OX1R Kb” value was found to be 409.

Consider `CCN(C(=O)c1ccccc1-c1ncccn1)[C@@H](C)COc1ccc(C(F)(F)F)cn1` [Example 102], for which the “OX2R Kb/OX1R Kb” value is reported as 1080.

`CCN(C(=O)c1ccccc1-c1cncc(C#N)c1)[C@@H](C)COc1ccc(C(F)(F)F)cn1` [Example 76]: the “OX2R Kb/OX1R Kb” value came out at 125.

Still in this series, the particulars now being: Orexin A 0.5 nM; read-out: OX1R Kb (Orexin A concentration used).
Regarding `CCN(C(=O)c1ccc(F)cc1-n1nccn1)[C@@H](C)COc1ccc(C(F)(F)F)cn1` [Example 1], the Kb was 0.34 nM.

Take `CCN(C(=O)c1ccccc1-c1cncc(C#N)c1)[C@@H](C)COc1ccc(C(F)(F)F)cn1` [Example 76]: the Kb was found to be 1.1 nM.

The same series, now with this note: Orexin A 50 nM; read-out: OX1R Kb (Orexin A concentration used).
As to `CCN(C(=O)c1cc(F)ccc1-c1ncccn1)[C@@H](C)COc1ccc(C(F)(F)F)cn1` [Example 107], the Kb was 0.064 nM.

With `CCN(C(=O)c1cc(C)ccc1-c1ncccn1)[C@@H](C)COc1ccc(C(F)(F)F)cn1` [Example 105], the Kb worked out at 0.021 nM.

On to `CCN(C(=O)c1cc(F)cc(F)c1-n1nccn1)[C@@H](C)COc1ccc(C(F)(F)F)cn1` [Example 13], for which the Kb is 0.18 nM.

For `CCN(C(=O)c1ccccc1-n1nccn1)[C@@H](C)COc1ccc(C(F)(F)F)cn1` [Example 10], the Kb is 0.18 nM.

Consider `CCN(C(=O)c1ccc(F)cc1-c1ncccn1)[C@@H](C)COc1ccc(C(F)(F)F)cn1` [Example 108], for which the Kb was determined as 0.11 nM.

As to `CCN(C(=O)c1ccccc1-c1ncccn1)[C@@H](C)COc1ccc(C(F)(F)F)cn1` [Example 102], the Kb turned out to be 0.025 nM.

With `CCN(C(=O)c1ccccc1-c1cncc(C#N)c1)[C@@H](C)COc1ccc(C(F)(F)F)cn1` [Example 76], the Kb is 0.99 nM.

The target in the next series is T2, human orexin 2 receptor (Homo sapiens, UniProt O43614).
T2 construct: stably expressing the full-length human orexin 2 receptor; expressed in transfected cells; host or cells: CHO-K1 (CHO-K1/hOX2), co-expressing aequorin
T2 sequence (O43614 1-444): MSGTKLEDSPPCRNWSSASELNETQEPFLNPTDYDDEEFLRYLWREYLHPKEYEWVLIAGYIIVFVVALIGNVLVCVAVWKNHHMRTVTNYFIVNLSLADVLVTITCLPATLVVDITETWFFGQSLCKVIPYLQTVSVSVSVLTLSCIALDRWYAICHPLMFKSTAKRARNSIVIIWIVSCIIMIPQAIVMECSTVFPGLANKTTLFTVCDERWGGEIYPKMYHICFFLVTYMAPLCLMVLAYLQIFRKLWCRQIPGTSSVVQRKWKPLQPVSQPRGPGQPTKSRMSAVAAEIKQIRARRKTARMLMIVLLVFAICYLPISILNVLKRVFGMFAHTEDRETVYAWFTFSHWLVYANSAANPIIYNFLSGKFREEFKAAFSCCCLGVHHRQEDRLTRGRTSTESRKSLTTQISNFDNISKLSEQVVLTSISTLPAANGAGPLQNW
Briefly: Assay B: In vitro testing of OX2R potency: OX2R IP1 (HTRF, CHO-K1/hOX2 cells, Orexin A as agonist). The note with it: Orexin A 0.5 nM. Type of series: cell-based. The text has this:
Activation of the orexin receptors expressed in cell lines results in an increase in intracellular IP3 concentration. IP1, a downstream metabolite of IP3, accumulates in cells following receptor activation and is stable in the presence of LiCl. Using Homogeneous Time-Resolved Fluorescence technology with Lumi4-Tb cryptate (commercially available from Cisbio Bioassay.) and a suitable fluorescence plate reader. […] Chem. Genomics 2009, 3, 22-32. This technique is used to characterize pharmacological modification of the orexin receptors.
B. In Vitro Testing of OX2R Potency: OX2R IP1
IP1 measurements are performed in CHO-K1 cells stably expressing the full-length human orexin 2 receptor and the aequorin photoprotein. Cells are cultivated in Ham's nutrient mixture F12 medium with 10% fetal calf serum, in a 37° C., 95% humidity and 5% CO2 incubator. The CHO-K1/hOX2 cell mass is expanded to larger cell numbers. The cells are obtained as frozen cells in cryo-vials and stored until use at −150° C. The viability of the cells after thawing is >90%. In preparation for the assay, 24 hours before the assay, the cells are thawed at 37° C. and immediately diluted with cell culture medium. After centrifugation, the cell pellet is resuspended in medium and then distributed into the assay plates with a density of 5000 cells/25 μL per well. The plates are incubated for one hour at room temperature to reduce edge effects before they are incubated for 24 hours at 37° C./5% CO2. Compounds are prepared by a 8-point serial dilution in DMSO and a final dilution step into assay buffer (HBSS with 20 mM HEPES, 0.1% BSA and 50 mM LiCl, pH 7.4) to ensure a final DMSO concentration of 1% in the assay.
On the day of the assay, cells in the plate are washed twice with 60 μL assay buffer (20 μL buffer remained in the wells after washing), followed by adding 5 μL per well of compounds diluted in assay buffer. After 15 minutes of incubation at room temperature 5 μL per well of Orexin A peptide (final concentration: 0.5 nM) dissolved in assay buffer is added to the assay plate. The assay plate is incubated for 60 minutes at 37° C. Then 5 μL per well of Anti-IP1-Cryptate Tb solution and 5 μL per well of IP1-d2 dilution are added to all well of the plate and the plate is incubated for a further 60 minutes light protected at room temperature. The emission at 615 nm and 665 nm (Excitation wavelength: 320 nm) are measured using an EnVision reader (PerkinElmer). The ratio between the emission at 665 nm and 615 is calculated by the reader.
8-point four parametric non-linear curve fitting and determination of IC50 values and Hill slopes is performed using a regular analysis software e.g. AssayExplorer (Accelrys). In order to establish an agonist concentration independent parameter, Kb values are calculated using the following equation: IC50/((2+(A/EC50)n)^1/n−1) (with A=concentration agonist, EC50=EC50 agonist, n=Hill slope agonist) (see P. Leff, I. G. Dougall, Trends Pharmacol. Sci. 1993, 14(4), 110-112).
Kb values from Assay A (OX1R) and Assay B (OX2R) can then provide a selectivity ratio which is independent of the agonist (Orexin A) concentration.
The molecule `CCN(C(=O)c1cc(F)ccc1-c1ncccn1)[C@@H](C)COc1ccc(C(F)(F)F)cn1` [Example 107] had a Kb of 32 nM.

With `CCN(C(=O)c1cc(C)ccc1-c1ncccn1)[C@@H](C)COc1ccc(C(F)(F)F)cn1` [Example 105], the Kb stood at 11 nM.

In the case of `CCN(C(=O)c1cc(F)cc(F)c1-n1nccn1)[C@@H](C)COc1ccc(C(F)(F)F)cn1` [Example 13], the Kb was determined as 92 nM.

In the case of `CCN(C(=O)c1ccccc1-n1nccn1)[C@@H](C)COc1ccc(C(F)(F)F)cn1` [Example 10], the Kb amounted to 21 nM.

In turn, `CC[C@@H](CNc1ccc(C(F)(F)F)cn1)N(C)C(=O)c1cc(Cl)ccc1-n1nccn1` [Ex 42 in WO2016/034882, reference compound] came in with a Kb of 229 nM.

The molecule `CCN(C(=O)c1ccc(F)cc1-c1ncccn1)[C@@H](C)COc1ccc(C(F)(F)F)cn1` [Example 108] showed a Kb of 45 nM.

`CCN(C(=O)c1ccccc1-c1ncccn1)[C@@H](C)COc1ccc(C(F)(F)F)cn1` [Example 102] registered a Kb of 27 nM.

For the molecule `CCN(C(=O)c1ccc(F)cc1-n1nccn1)[C@@H](C)COc1ccc(C(F)(F)F)cn1` [Example 1], the Kb worked out at 58 nM.

For the molecule `CCN(C(=O)c1ccccc1-c1cncc(C#N)c1)[C@@H](C)COc1ccc(C(F)(F)F)cn1` [Example 76], the Kb was 124 nM.

With `CC[C@@H](CNc1ccc(Cl)cn1)N(C)C(=O)c1cc(C)ccc1-n1nccn1` [Ex 1 in WO2016/034882, reference compound], the Kb was found to be 36 nM.

Test system in a further series: not listed separately
In words: Assay C: Metabolic stability in human liver microsomes (Human MST). Type of series: in vitro ADME. The following applies: pooled human liver microsomes, pH 7.6; human liver microsomes 1 mg/mL, compound 1 μM, 37° C., NADPH; read-out: Human MST t1/2. Here is the method:
C. Assessment of Metabolic Stability in Human Liver Microsomes (Human MST)
The metabolic stability of the compounds according to the invention may be investigated as follows:
The metabolic degradation of the test compound is assayed at 37° C. with pooled human liver microsomes. The final incubation volume of 100 μL per time point contains TRIS buffer pH 7.6 at room temperature (0.1 M), MgCl2 (5 mM), microsomal protein (1 mg/mL) and the test compound at a final concentration of 1 μM. Following a short pre-incubation period at 37° C., the reactions are initiated by addition of beta-nicotinamide adenine dinucleotide phosphate, reduced form (NADPH, 1 mM), and terminated by transferring an aliquot into solvent after different time points. After centrifugation (10000 g, 5 min), an aliquot of the supernatant is assayed by LC-MS/MS for the amount of parent compound. The half-life (t1/2) is determined by the slope of the semi-logarithmic plot of the concentration-time profile.
Background: Liver microsomes are vesicles of endoplasmic reticulum, rich in cytochrome P450 enzymes.
As for `CCN(C(=O)c1cc(F)ccc1-c1ncccn1)[C@@H](C)COc1ccc(C(F)(F)F)cn1` [Example 107], the half-life at 1 μM was 65 min.

For the molecule `CCN(C(=O)c1cc(C)ccc1-c1ncccn1)[C@@H](C)COc1ccc(C(F)(F)F)cn1` [Example 105], the half-life at 1 μM worked out at 10 min.

On to `CCN(C(=O)c1cc(F)cc(F)c1-n1nccn1)[C@@H](C)COc1ccc(C(F)(F)F)cn1` [Example 13], for which the half-life at 1 μM was determined as 49 min.

On to `CCN(C(=O)c1ccccc1-n1nccn1)[C@@H](C)COc1ccc(C(F)(F)F)cn1` [Example 10], for which the half-life at 1 μM worked out at 24 min.

As for `CC[C@@H](CNc1ccc(C(F)(F)F)cn1)N(C)C(=O)c1cc(Cl)ccc1-n1nccn1` [Ex 42 in WO2016/034882, reference compound], the half-life at 1 μM amounted to 7 min.

With `CCN(C(=O)c1ccc(F)cc1-c1ncccn1)[C@@H](C)COc1ccc(C(F)(F)F)cn1` [Example 108], the half-life at 1 μM was found to be 50 min.

On to `CCN(C(=O)c1ccccc1-c1ncccn1)[C@@H](C)COc1ccc(C(F)(F)F)cn1` [Example 102], for which the half-life at 1 μM is 36 min.

Turning to `CCN(C(=O)c1ccc(F)cc1-n1nccn1)[C@@H](C)COc1ccc(C(F)(F)F)cn1` [Example 1], the half-life at 1 μM is 38 min.

For `CCN(C(=O)c1ccccc1-c1cncc(C#N)c1)[C@@H](C)COc1ccc(C(F)(F)F)cn1` [Example 76], the half-life at 1 μM was 11 min.

Turning to `CC[C@@H](CNc1ccc(Cl)cn1)N(C)C(=O)c1cc(C)ccc1-n1nccn1` [Ex 1 in WO2016/034882, reference compound], the half-life at 1 μM amounted to 5 min.

Source of the values: patent US10787432B2, “N-[(pyridyloxy)propanyl]benzamides” (Boehringer Ingelheim International GmbH, priority 2016, dated 2020).
